Entries after “also recorded” stand apart in the source; their conditions may differ.
Legend:
[1] = tested on: A9 cells; assay: MS detection of ZMP and dUMP in cultured cells; assay type: cell-based, murine
Protocol: To mimic human plasma levels, low folate media is traditionally used in which the folate comes only from the defined fetal bovine serum. […] Because LSN3213128 would be dosed in mice on normal diet, cell line screening was performed under standard tissue culture conditions to identify cell lines sensitive to treatment under high folate conditions. In order to compare tissue culture values with tumor levels, an average 4 pL cell volume[36] was used to calculate cellular ZMP concentrations. In MDA-MB-231[…] cells using regular RPMI, the peak intracellular ZMP levels are about 770 μM while in the salvage deficient A9 cells ZMP is 6,500 μM. […] It is not surprising that in vivo in mice on standard chow where folate plasma levels are >10-fold lower than tissue culture that tumor ZMP levels are also lower. […] ZMP was detected in cultured cells via mass spec analysis. Cells were plated in 96-well plates at 25,000 cells per well in 100 μL with either high or low folate RPMI media and incubated overnight at 37 °C with 5% CO2. Cells were treated with inhibitor compounds for 16 hours, 0.5% DMSO final concentration. Growth media was decanted and cells were lysed for 10 min at room temperature with 50 μL per well of 1x Sure Fire Lysis buffer (Perkin Elmer, SureFire kit component). […] Samples were sealed, vortexed for 5 minutes, and placed in the refrigerator for at least 30 minutes. The samples were centrifuged at 4 °C for 10 minutes at 16,600 g. 75 μL of the aqueous layer were transferred to a clean 96-well plate and seal prior to analysis. The LC-MS method utilizes a Shimadzu Prominence 20 A HPLC system connected to an AB Sciex 5500TM or an AB Sciex 6500TM triple quadrupole mass spectrometer. […] […] dUMP were detected using positive ion TurboIonSpray® multiple reaction monitoring mode and the data were processed with AB Sciex MultiQuantTM. Back-calculated ZMP concentrations were fit to a four-parameter logistic equation using ACTIVITYBASE 4.0 to determine EC50 values relative to the maximum observed metabolite levels.

[2] = target: T1, AKT1 (Homo sapiens, UniProt P31749); assay: CEREP protein kinase assay; assay type: biochemical
T1 construct: purchased CEREP Panlabs (Eurofins)
T1 sequence (P31749 whole entry): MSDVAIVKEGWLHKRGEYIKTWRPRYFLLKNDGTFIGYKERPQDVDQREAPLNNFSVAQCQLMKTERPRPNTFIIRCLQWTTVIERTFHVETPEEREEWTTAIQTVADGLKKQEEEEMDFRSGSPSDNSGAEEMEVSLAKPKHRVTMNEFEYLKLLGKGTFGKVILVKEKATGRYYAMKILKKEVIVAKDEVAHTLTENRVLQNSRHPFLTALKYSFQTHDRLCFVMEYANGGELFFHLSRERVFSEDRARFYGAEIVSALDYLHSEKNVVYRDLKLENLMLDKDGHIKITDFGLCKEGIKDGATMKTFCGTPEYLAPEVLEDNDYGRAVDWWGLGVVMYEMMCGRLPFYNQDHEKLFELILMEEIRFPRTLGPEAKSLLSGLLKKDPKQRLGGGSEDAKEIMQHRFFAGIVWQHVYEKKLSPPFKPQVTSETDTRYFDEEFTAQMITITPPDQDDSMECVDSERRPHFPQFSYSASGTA

[3] = target: T2, DRAK1 (Homo sapiens, UniProt Q9UEE5); assay: CEREP protein kinase assay; assay type: biochemical
T2 construct: purchased CEREP Panlabs (Eurofins)
T2 sequence (Q9UEE5 1-414): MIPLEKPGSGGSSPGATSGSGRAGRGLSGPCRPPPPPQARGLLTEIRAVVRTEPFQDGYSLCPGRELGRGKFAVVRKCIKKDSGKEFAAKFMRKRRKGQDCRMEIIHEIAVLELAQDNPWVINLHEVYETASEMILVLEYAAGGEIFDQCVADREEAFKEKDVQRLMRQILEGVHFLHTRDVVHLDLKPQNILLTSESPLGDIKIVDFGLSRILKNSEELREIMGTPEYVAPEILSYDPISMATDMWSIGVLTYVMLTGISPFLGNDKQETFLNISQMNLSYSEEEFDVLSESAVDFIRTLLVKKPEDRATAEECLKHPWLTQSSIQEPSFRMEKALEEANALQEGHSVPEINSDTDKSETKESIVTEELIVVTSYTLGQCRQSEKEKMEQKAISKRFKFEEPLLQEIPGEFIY

[4] = target: T3, HER2 (Homo sapiens, UniProt P04626); assay: CEREP protein kinase assay; assay type: biochemical
T3 construct: purchased CEREP Panlabs (Eurofins)
T3 sequence (P04626 23-1255): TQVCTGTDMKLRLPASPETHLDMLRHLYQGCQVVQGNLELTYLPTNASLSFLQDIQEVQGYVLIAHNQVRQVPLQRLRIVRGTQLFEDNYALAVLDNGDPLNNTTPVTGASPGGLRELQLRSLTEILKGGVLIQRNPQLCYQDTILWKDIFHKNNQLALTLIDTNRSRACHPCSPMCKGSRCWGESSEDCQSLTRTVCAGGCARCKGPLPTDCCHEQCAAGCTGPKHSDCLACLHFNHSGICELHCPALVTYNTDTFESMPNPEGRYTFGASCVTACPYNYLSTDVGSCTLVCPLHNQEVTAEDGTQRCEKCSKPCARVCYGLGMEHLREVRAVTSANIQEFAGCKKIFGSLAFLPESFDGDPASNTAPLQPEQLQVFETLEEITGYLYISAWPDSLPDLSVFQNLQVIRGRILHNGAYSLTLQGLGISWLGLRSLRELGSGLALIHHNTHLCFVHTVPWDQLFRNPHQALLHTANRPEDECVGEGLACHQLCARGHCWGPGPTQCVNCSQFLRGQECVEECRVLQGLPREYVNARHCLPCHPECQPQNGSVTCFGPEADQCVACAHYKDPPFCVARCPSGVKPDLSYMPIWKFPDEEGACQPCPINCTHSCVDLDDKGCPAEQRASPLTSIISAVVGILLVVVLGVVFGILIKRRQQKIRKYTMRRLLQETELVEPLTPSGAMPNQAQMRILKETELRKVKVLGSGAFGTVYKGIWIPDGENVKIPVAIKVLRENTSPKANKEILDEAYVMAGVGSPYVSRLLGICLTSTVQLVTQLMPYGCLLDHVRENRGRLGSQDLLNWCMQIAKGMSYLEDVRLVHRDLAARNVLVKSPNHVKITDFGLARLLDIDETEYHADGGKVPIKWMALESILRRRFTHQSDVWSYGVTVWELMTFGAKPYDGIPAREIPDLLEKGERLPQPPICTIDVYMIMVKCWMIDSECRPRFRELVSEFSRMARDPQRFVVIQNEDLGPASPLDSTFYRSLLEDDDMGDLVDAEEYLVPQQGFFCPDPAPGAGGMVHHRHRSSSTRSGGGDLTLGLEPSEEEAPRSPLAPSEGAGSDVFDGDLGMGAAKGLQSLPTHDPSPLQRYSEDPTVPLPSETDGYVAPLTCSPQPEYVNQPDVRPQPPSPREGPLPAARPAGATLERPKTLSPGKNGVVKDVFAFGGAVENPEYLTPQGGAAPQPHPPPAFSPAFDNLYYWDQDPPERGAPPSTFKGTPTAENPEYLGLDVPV

[5] = target: T4, FAK (Homo sapiens, UniProt Q05397); assay: CEREP protein kinase assay; assay type: biochemical
T4 construct: purchased CEREP Panlabs (Eurofins)
T4 sequence (Q05397 whole entry): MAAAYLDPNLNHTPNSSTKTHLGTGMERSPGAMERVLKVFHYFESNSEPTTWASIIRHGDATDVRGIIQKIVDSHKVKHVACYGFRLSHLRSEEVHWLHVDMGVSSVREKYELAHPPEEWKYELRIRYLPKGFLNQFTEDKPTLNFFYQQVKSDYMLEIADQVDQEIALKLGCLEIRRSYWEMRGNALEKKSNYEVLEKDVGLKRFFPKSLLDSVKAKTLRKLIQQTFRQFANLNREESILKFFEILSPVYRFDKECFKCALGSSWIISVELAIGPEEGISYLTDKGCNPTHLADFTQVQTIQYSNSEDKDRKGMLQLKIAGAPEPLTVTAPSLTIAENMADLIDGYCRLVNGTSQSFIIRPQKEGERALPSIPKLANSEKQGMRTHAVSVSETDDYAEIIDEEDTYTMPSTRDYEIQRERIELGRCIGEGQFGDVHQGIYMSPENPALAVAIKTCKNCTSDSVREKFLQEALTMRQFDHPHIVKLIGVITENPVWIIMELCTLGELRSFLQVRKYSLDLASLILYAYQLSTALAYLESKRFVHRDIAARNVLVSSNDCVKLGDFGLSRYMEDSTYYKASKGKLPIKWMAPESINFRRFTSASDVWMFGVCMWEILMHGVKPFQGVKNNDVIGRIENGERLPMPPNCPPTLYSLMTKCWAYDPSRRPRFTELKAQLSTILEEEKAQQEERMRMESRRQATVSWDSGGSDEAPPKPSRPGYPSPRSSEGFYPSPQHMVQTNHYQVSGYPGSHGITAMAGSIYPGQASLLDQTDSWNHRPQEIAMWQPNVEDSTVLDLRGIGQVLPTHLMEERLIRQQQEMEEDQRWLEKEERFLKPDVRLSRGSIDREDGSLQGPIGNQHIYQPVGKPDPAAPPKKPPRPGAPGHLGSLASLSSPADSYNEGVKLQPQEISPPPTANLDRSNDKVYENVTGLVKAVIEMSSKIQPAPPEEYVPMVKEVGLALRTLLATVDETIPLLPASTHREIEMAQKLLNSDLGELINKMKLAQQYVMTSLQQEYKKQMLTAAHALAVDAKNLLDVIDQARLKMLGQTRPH

[6] = target: T5, IKKb (Homo sapiens, UniProt O14920); assay: CEREP protein kinase assay; assay type: biochemical
T5 construct: purchased CEREP Panlabs (Eurofins)
T5 sequence (O14920 1-756): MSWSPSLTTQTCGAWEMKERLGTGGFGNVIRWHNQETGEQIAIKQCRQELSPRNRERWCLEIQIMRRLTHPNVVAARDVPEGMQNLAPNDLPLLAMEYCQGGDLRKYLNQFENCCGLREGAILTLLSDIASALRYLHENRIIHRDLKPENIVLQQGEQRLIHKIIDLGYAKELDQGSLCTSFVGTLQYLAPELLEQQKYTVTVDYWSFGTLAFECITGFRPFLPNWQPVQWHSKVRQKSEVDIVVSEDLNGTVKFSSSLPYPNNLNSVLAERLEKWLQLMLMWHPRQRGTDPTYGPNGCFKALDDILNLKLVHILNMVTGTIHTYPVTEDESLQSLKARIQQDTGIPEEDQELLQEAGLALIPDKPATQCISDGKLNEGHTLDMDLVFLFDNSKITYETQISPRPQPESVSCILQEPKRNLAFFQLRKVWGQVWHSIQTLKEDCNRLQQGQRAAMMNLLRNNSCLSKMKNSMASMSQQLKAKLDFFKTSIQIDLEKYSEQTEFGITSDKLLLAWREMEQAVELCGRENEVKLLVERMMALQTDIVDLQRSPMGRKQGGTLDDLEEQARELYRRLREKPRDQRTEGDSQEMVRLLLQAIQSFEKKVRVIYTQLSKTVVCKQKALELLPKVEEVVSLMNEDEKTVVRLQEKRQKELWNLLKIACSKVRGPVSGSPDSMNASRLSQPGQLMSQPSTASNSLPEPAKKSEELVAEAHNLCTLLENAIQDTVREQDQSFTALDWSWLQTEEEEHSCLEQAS

[7] = target: T6, JNK3 (Homo sapiens, UniProt P53779); assay: CEREP protein kinase assay; assay type: biochemical
T6 construct: purchased CEREP Panlabs (Eurofins)
T6 sequence (P53779 whole entry): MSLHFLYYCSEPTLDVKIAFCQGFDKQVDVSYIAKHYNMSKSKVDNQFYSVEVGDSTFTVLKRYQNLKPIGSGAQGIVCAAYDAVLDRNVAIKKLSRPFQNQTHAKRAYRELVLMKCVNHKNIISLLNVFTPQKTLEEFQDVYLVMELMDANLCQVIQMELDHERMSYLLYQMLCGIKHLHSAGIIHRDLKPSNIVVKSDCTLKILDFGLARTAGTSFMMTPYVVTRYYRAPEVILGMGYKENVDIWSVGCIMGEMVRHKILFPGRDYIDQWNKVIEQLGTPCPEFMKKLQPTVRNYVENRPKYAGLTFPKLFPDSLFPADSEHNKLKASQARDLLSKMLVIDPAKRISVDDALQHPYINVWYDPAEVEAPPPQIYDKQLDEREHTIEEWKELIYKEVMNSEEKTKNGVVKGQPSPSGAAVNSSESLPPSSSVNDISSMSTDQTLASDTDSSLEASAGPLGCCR

[8] = target: T7, TNK2 (Homo sapiens, UniProt Q07912); assay: CEREP protein kinase assay; assay type: biochemical
T7 construct: purchased CEREP Panlabs (Eurofins)
T7 sequence (Q07912 whole entry): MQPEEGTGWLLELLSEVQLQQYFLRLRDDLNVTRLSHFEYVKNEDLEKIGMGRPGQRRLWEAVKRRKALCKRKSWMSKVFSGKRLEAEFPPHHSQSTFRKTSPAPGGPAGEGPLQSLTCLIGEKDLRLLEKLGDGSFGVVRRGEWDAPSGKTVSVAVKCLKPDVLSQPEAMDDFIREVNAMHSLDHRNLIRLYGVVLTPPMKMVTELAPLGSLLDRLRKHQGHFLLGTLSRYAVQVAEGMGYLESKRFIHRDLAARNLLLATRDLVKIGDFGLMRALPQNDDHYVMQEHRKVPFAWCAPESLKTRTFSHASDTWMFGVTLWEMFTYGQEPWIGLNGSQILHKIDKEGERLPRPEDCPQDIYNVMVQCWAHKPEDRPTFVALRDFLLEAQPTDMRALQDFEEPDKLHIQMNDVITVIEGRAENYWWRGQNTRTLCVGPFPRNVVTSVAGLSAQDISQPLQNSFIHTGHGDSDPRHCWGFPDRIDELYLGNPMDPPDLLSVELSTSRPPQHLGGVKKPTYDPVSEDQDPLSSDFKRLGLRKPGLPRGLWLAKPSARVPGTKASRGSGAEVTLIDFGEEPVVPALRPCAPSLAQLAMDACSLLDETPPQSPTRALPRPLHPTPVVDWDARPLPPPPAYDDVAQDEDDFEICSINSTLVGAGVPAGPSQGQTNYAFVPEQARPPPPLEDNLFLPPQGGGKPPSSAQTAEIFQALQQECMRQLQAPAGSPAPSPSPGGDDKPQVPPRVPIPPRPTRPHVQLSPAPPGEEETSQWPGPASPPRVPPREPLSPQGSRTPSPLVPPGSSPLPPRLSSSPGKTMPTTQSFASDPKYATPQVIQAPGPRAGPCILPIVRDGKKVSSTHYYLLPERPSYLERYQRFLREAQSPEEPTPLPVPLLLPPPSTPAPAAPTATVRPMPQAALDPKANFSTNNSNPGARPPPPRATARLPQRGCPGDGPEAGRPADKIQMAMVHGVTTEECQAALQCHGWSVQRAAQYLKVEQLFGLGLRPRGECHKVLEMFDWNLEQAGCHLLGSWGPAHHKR

O=c1[nH]ccc2cc(F)c(NS(=O)(=O)c3ccc(N4CC[C@@H](O)C4)s3)cc12 [LSN3213128, N-(6-Fluoro-1-oxo-1,2-dihydroisoquinolin-7-yl)-5-[(3R)-3-hydroxypyrrolidin-1-yl]thiophene-2-sulfonamide]
dUMP levels in tissue culture ([1]; A9): No changes; also recorded: does not alter | peak intracellular ZMP levels ([1]; A9 cells, calculated with 4 pL cell volume): 6,500 μM | inhibition at 0.2 µM ([2]; @ 0.2 uM): -1.76% | inhibition at 2 µM ([2]; @ 2 uM): 5.52% | inhibition at 20 µM ([2]; @ 20 uM): -6.9% | inhibition at 0.2 µM ([3]; @ 0.2 uM): 4.41% | inhibition at 2 µM ([3]; @ 2 uM): 13.9% | inhibition at 20 µM ([3]; @ 20 uM): 20.3% | inhibition at 0.2 µM ([4]; @ 0.2 uM): 6.55% | inhibition at 2 µM ([4]; @ 2 uM): 12.4% | inhibition at 20 µM ([4]; @ 20 uM): 9.08% | inhibition at 0.2 µM ([5]; @ 0.2 uM): -12.7% | inhibition at 2 µM ([5]; @ 2 uM): -4.84% | inhibition at 20 µM ([5]; @ 20 uM): 40.1% | inhibition at 0.2 µM ([6]; @ 0.2 uM): -6.4% | inhibition at 2 µM ([6]; @ 2 uM): 0.126% | inhibition at 20 µM ([6]; @ 20 uM): 4.91% | inhibition at 0.2 µM ([7]; @ 0.2 uM): -0.752% | inhibition at 2 µM ([7]; @ 2 uM): 19.2% | inhibition at 20 µM ([7]; @ 20 uM): 76.2% | inhibition at 0.2 µM ([8]; @ 0.2 uM): -2.49% | inhibition at 2 µM ([8]; @ 2 uM): 16.4% | inhibition at 20 µM ([8]; @ 20 uM): 52.5%

Reference: paper PMC6193938, “Characterization of a novel AICARFT inhibitor which potently elevates ZMP and has anti-tumor activity in murine models” (Scientific Reports, 2018)
